From patent publication US11420936B2, “Hypoxia inducible factor-2(alpha) inhibitors and their use in the treatment of diseases” (priority 2020, dated 2022)

Biological target: HIF-2α/ARNT dimerization (Homo sapiens (Human), UniProt Q99814)
Test: Co-immunoprecipitation assay for inhibition of HIF-2α and ARNT dimerization in PASMC and HPAEC
Type: cell-based
Conditions: 0.01 μM, PASMC/HPAEC under hypoxia condition (1% O2)
Description: FIG. 1 provides results of a co-immunoprecipitation assay for measuring inhibition of HIF-2α and ARNT dimerization in Primary Pulmonary Artery Smooth Muscle Cells (PASMC) and Human Pulmonary Artery Endothelial Cells (HPAEC).
Primary Pulmonary Artery Smooth Muscle Cells (PASMC, ATCC #PCS-100-023) were cultured in Vascular Cell Basal Medium (ATCC #PCS-100-030) supplemented with Vascular Smooth Muscle Cell Growth Kit (ATCC #PCS-100-042). Primary Pulmonary Artery Endothelial Cells (HPAEC, ATCC #PCS-100-022) were cultured in Vascular Cell Basal Medium (ATCC #PCS-100-030) supplemented with Endothelial Cell Growth Kit-BBE (ATCC #PCS-100-040). 0.5×10^6 cells were seeded into 6-well cell culture plates (Corning #3736) in 2 mL of media and cultured in a 37° C. cell culture incubator with atmospheric levels of oxygen and 5% CO2 overnight. The following day, cells were cultured in normoxia condition (atmospheric levels of oxygen and 5% CO2) or in hypoxia condition (1% O2 and 5% CO2) and treated with dimethyl sulfoxide (DMSO) or Compound 24a at 0.001, 0.01, 0.1, and 1 μM for 24 h.
After treatment, cells were washed with ice-cold PBS (containing compounds as in treatment step). […] Supernatant (cell lysate) was transferred to a new tube and protein concentration was measured by BCA protein assay. […]
Cell lysates were also analyzed by immunoblot (Western analysis). […]

Sequence of HIF-2α/ARNT dimerization (Q99814 whole entry): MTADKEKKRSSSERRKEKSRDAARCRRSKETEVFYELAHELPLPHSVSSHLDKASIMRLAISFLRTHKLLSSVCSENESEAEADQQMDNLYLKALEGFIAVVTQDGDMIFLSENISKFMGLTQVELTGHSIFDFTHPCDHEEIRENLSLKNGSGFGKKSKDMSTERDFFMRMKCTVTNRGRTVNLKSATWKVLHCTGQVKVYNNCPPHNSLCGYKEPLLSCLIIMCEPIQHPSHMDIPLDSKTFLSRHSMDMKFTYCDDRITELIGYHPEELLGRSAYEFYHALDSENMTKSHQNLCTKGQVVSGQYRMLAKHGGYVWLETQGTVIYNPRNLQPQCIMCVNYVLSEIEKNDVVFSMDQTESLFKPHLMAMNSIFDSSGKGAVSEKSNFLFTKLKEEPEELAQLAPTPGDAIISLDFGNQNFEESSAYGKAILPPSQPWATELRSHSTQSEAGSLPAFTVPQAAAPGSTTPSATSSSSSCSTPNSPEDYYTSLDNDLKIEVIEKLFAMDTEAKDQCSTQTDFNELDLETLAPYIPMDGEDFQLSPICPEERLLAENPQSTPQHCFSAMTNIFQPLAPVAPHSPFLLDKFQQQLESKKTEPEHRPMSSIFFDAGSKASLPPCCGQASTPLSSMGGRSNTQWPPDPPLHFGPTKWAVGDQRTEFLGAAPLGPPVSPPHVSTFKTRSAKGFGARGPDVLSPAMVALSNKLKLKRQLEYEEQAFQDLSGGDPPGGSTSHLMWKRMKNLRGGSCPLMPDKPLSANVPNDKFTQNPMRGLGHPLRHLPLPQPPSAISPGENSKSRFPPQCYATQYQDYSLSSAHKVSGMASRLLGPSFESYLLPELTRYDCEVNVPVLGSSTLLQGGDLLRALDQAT

| SMILES | Disruption of HIF-2α/ARNT dimerization at 0.01 μM |
| --- | --- |
| N#Cc1cc(F)cc(Oc2ccc3c4c2[C@@H](F)[C@@H](F)[C@]4(O)C(F)(F)C3(F)F)c1 [Compound 24a, 3-fluoro-5-(((1R,2S,2aS)-1,2,3,3,4,4-hexafluoro-2a-hydroxy-2,2a,3,4-tetrahydro-1H-cyclopenta[cd]inden-7-yl)oxy)benzonitrile] | efficiently disrupt the HIF-2α/ARNT dimerization |

Same assay, conditions: PASMC and HPAEC, 0.001, 0.01, 0.1 and 1 μM for 24 h, FIG. 1

| SMILES | Disruption of HIF-2α/ARNT dimerization (HIF-2α protein co-precipitated with ARNT) |
| --- | --- |
| N#Cc1cc(F)cc(Oc2ccc3c4c2[C@@H](F)[C@@H](F)[C@]4(O)C(F)(F)C3(F)F)c1 [Compound 24a, 3-fluoro-5-(((1R,2S,2aS)-1,2,3,3,4,4-hexafluoro-2a-hydroxy-2,2a,3,4-tetrahydro-1H-cyclopenta[cd]inden-7-yl)oxy)benzonitrile] | reduced in the lysate of cells treated with Compound 24a in a dose-dependent manner |

Biological target: HIF-2α (Homo sapiens (Human), UniProt Q99814)
Test: cell-based
Type: cell-based
Conditions: not given
Description: The ability of the disclosed compounds to inhibit HIF-2α was measured by determining VEGF expression in 786-O cells. About 7500 786-O cells were seeded into each well of a 96-well, white, clear bottom plate (07-200-566, Fisher Scientific) with 200 ul growth medium. Four hours later, compounds were dispensed into wells by Tecan D300e digital dispenser with starting concentration of 10 uM and ½ log of dilution down to 1 nM as final concentration. Each concentration of treatment was performed in duplicate. About 20 hours later, medium was removed and fresh medium was added, followed by compounds treatment as described above. 24 hours later, cell culture medium was collected to determine VEGF concentration using an ELISA kit (R&D systems, cat #DVE00) following the manufacturer's instruction.
The EC50 is calculated by GraphPad Prism using the dose-response-inhibition (four parameter) equation. The plate with cells was then subjected to CellTiter-Glo luminescence cell viability assay (Promega) to determine the effect of these compounds on cell numbers after the above treatment.

Sequence of HIF-2α (Q99814 whole entry): as above

| EC50 | SMILES |
| --- | --- |
| 6 nM | [2H]C1([2H])[C@@]2(O)c3c(ccc(Oc4cc(F)cc(C#N)c4)c3[C@@]1([2H])F)C(F)(F)C2(F)F [Compound 21, 3-fluoro-5-(((1S,2aR)-1,3,3,4,4-pentafluoro-2a-hydroxy-2,2a,3,4-tetrahydro-1H-cyclopenta[cd]inden-7-yl-1,2,2-d3)oxy)benzonitrile] |

Same assay, conditions: inhibition of VEGF expression in 786-O cells, ELISA of culture medium; read-out: EC50

| SMILES | EC50 |
| --- | --- |
| CC1CC2(O)c3c(ccc(Oc4cc(F)cc(C#N)c4)c31)C(F)(F)C2(F)F (stereo not shown) [Compound 10, 3-fluoro-5-((3,3,4,4-tetrafluoro-2a-hydroxy-1-methyl-2,2a,3,4-tetrahydro-1H-cyclopenta[cd]inden-7-yl)oxy)benzonitrile] | 410 nM |
| OC12CC(F)c3c(Oc4cncc(F)c4)ccc(c31)C(F)(F)C2(F)F (stereo not shown) [Compound 8, 1,3,3,4,4-pentafluoro-7-((5-fluoropyridin-3-yl)oxy)-1,2,3,4-tetrahydro-2aH-cyclopenta[cd]inden-2a-ol] | 320 nM |
| CC1(O)CC2(O)c3c(ccc(Oc4cc(F)cc(C#N)c4)c31)C(F)(F)C2(F)F (stereo not shown) [Compound 11, 3-fluoro-5-((3,3,4,4-tetrafluoro-1,2a-dihydroxy-1-methyl-2,2a,3,4-tetrahydro-1H-cyclopenta[cd]inden-7-yl)oxy)benzonitrile] | > 5000 nM |
| C=C1C[C@@]2(O)c3c(ccc(Oc4cc(F)cc(C#N)c4)c31)C(F)(F)C2(F)F [Compound 23a, (R)-3-fluoro-5-((3,3,4,4-tetrafluoro-2a-hydroxy-1-methylene-2,2a,3,4-tetrahydro-1H-cyclopenta[cd]inden-7-yl)oxy)benzonitrile] | 7 nM |
| CC1(F)CC2(O)c3c(ccc(Oc4cc(F)cc(C#N)c4)c31)C(F)(F)C2(F)F (stereo not shown) [Compound 12, 3-fluoro-5-((1,3,3,4,4-pentafluoro-2a-hydroxy-1-methyl-2,2a,3,4-tetrahydro-1H-cyclopenta[cd]inden-7-yl)oxy)benzonitrile] | 100 nM |
| N#Cc1cc(F)cc(Oc2ccc3c4c2CC(F)(F)C4(O)CC3F)c1 (stereo not shown) [Compound 19, 3-fluoro-5-((1,3,3-trifluoro-2a-hydroxy-2,2a,3,4-tetrahydro-1H-cyclopenta[cd]inden-5-yl)oxy)benzonitrile] | 4100 nM |
| N#Cc1cc(F)cc(Oc2ccc3c4c2C(F)CC4(N)C(F)(F)C3(F)F)c1 (stereo not shown) [Compound 14, 3-((2a-amino-1,3,3,4,4-pentafluoro-2,2a,3,4-tetrahydro-1H-cyclopenta[cd]inden-7-yl)oxy)-5-fluorobenzonitrile] | 630 nM |
| N#Cc1cc(F)cc(Oc2ccc3c4c2[C@@H](F)C[C@]4(O)C(F)(F)C3(F)F)c1 [Compound 5, 3-fluoro-5-(((1S,2aR)-1,3,3,4,4-pentafluoro-2a-hydroxy-2,2a,3,4-tetrahydro-1H-cyclopenta[cd]inden-7-yl)oxy)benzonitrile] | 6 nM |
| N#Cc1cc(F)cc(Oc2ccc3c4c2C(F)CC4(O)C(F)(F)C3(F)F)c1 (stereo not shown) [Compound 4, 3-fluoro-5-((1,3,3,4,4-pentafluoro-2a-hydroxy-2,2a,3,4-tetrahydro-1H-cyclopenta[cd]inden-7-yl)oxy)benzonitrile] | 10 nM |
| N#Cc1cc(F)cc(Oc2ccc3c4c2CCC4(O)C(F)(F)C3(F)F)c1 (stereo not shown) [Compound 13, 3-fluoro-5-((3,3,4,4-tetrafluoro-2a-hydroxy-2,2a,3,4-tetrahydro-1H-cyclopenta[cd]inden-7-yl)oxy)benzonitrile] | 330 nM |
| N#Cc1cc(F)cc(Oc2ccc3c4c2[C@H](F)C[C@]4(O)C(F)(F)C3(F)F)c1 [Compound 7, 3-fluoro-5-(((1R,2aR)-1,3,3,4,4-pentafluoro-2a-hydroxy-2,2a,3,4-tetrahydro-1H-cyclopenta[cd]inden-7-yl)oxy)benzonitrile] | 2100 nM |
| N#Cc1cc(F)cc(Oc2ccc3c4c2[C@@H](F)[C@H](F)[C@]4(O)C(F)(F)C3(F)F)c1 [Compound 24b, 3-fluoro-5-(((1R,2R,2aS)-1,2,3,3,4,4-hexafluoro-2a-hydroxy-2,2a,3,4-tetrahydro-1H-cyclopenta[cd]inden-7-yl)oxy)benzonitrile] | 11 nM |
| N#Cc1cc(F)cc(Oc2ccc3c4c2C(F)(F)CC4(F)C(F)(F)C3(F)F)c1 (stereo not shown) [Compound 15, 3-fluoro-5-((1,1,2a,3,3,4,4-heptafluoro-2,2a,3,4-tetrahydro-1H-cyclopenta[cd]inden-7-yl)oxy)benzonitrile] | > 5000 nM |
| C=C1CC2(O)c3c(ccc(Oc4cc(F)cc(C#N)c4)c31)C(F)(F)C2(F)F (stereo not shown) [Compound 1, 3-fluoro-5-((3,3,4,4-tetrafluoro-2a-hydroxy-1-methylene-2,2a,3,4-tetrahydro-1H-cyclopenta[cd]inden-7-yl)oxy)benzonitrile] | 13 nM |
| N#Cc1cc(F)cc(Oc2ccc3c4c2C2(CC2)CC4(O)C(F)(F)C3(F)F)c1 (stereo not shown) [Compound 9, 3-fluoro-5-((3,3,4,4-tetrafluoro-2a-hydroxy-2,2a,3,4-tetrahydrospiro[cyclopenta[cd]indene-1,1′-cyclopropan]-7-yl)oxy)benzonitrile] | 170 nM |
| N#Cc1cc(F)cc(Oc2ccc3c4c2[C@@H](F)[C@@H](F)[C@]4(O)C(F)(F)C3(F)F)c1 [Compound 24a, 3-fluoro-5-(((1R,2S,2aS)-1,2,3,3,4,4-hexafluoro-2a-hydroxy-2,2a,3,4-tetrahydro-1H-cyclopenta[cd]inden-7-yl)oxy)benzonitrile] | 2 nM |
